Conditions: Liquid; for speed of sound: Pulse-echo method

CCCCCCCl [1-chlorohexane]
Conditions	mass density, 293.15 K [kg/m3]	mass density, 313.15 K [kg/m3]	mass density, 333.15 K [kg/m3]	mass density, 353.15 K [kg/m3]	speed of sound, 293.15 K [m/s]	speed of sound, 313.15 K [m/s]	speed of sound, 333.15 K [m/s]	speed of sound, 353.15 K [m/s]
100 kPa	878.5	859.4	840.3	821.3	1219.1	1140.7	1068.8	995
5000 kPa	884.2	865	847.1	828.1	1240.5	1166.4	1097.1	1026.2
9910 kPa	887	869.8	851.9	833.7	1264.5	1191.8	1124.4	1055.4
19720 kPa	894.7	878.3	861.5	844.5	1310	1240.1	1176	1110.7
29530 kPa	901.8	886.2	870.3	854.3	1352.6	1285.3	1224	1162
39340 kPa	908.4	893.4	878.3	863.1	1392.6	1327.6	1268.8	1209.8
49150 kPa	914.6	900.1	885.7	871.2	1430.1	1367.4	1310.8	1254.5
58960 kPa	920.4	906.4	892.6	878.7	1465.7	1405	1350.4	1296.3
68770 kPa	925.9	912.3	899	885.6	1499.3	1440.6	1387.7	1335.8
78580 kPa	931.1	917.9	905	892.1	1531.5	1474.6	1423.2	1373
88390 kPa	936	923.1	910.7	898.2	1562.3	1507	1457	1408.3
98200 kPa	940.7	928.1	916	–	1591.9	1538	1489.4	–
108000 kPa	945.1	932.8	921.1	–	1620.6	1567.9	1520.4	–
117800 kPa	949.4	937.3	925.9	–	1648.2	1596.7	1550.3	–
127600 kPa	953.4	941.6	930.4	–	1675.2	1624.5	1579.1	–
137400 kPa	957.3	945.7	934.8	–	1701.5	1651.4	1607	–
147200 kPa	961.1	949.7	939	–	1727.1	1677.5	1633.9	–
157100 kPa	964.7	953.5	943	–	1752.2	1702.6	1659.9	–
166900 kPa	968.1	957.1	946.8	–	1776.7	1726.9	1684.9	–
176700 kPa	971.5	960.6	950.5	–	1800.6	1750.3	1708.9	–
186500 kPa	974.7	964	954	–	1824	1772.6	1731.8	–
196300 kPa	977.9	967.2	957.4	–	1846.5	1793.6	1753.5	–
